From patent publication US8952024B2, “Herbicidal pyrimidone derivatives” (E I du Pont de Nemours and Company, priority 2009, dated 2015)

What was measured:
Format in all cases: in vivo
[1] = test system: windgrass (Apera spica-venti); assay: Test B postemergence plant response; settings: Postemergence
In short: (§1)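 Plants at the 1- to 4-leaf stage (2 to 18 cm tall), grown in pots of peat moss/vermiculite medium with wetting agent and starter nutrients, received postemergence applications of test chemicals. After 13 to 15 days in a greenhouse, injury was rated visually against untreated controls on a 0 (no effect) to 100 (complete control) scale.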

[2] = test system: canarygrass (Phalaris minor); assay: Test B postemergence plant response; settings: Postemergence
In short: as §1

[3] = test system: chickweed (Stellaria media); assay: Test B postemergence plant response; settings: Postemergence
In short: as §1

kochia (Kochia scoparia) = assay: Test B pre-/postemergence plant response
In short: (§2)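 Ratings reflect visual comparison with untreated controls 13 to 15 days after application, from 0 (no effect) to 100 (complete control). Application was preemergence to seeded loam/sand soil or postemergence to 1- to 4-leaf plants, with compound in a non-phytotoxic, surfactant-containing solvent.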

soybean (Glycine max) = assay: Test B pre-/postemergence plant response
In short: as §2

[4] = test system: pigweed (Amaranthus retroflexus); assay: Test B pre-/postemergence plant response
In short: as §2

[5] = test system: wheat (Triticum aestivum); assay: Test B pre-/postemergence plant response
In short: as §2

[6] = test system: ragweed (common ragweed, Ambrosia elatior); assay: Test B pre-/postemergence plant response
In short: as §2

[7] = test system: johnsongrass (Sorghum halepense); assay: Test B pre-/postemergence plant response
In short: as §2

[8] = test system: goosegrass (Eleusine indica); assay: Test B pre-/postemergence plant response
In short: as §2

wild oat (Avena fatua) = assay: Test B pre-/postemergence plant response
In short: as §2

[9] = test system: cocklebur (Xanthium strumarium); assay: Test B pre-/postemergence plant response; settings: Preemergence
In short: as §2

[10] = test system: velvetleaf (Abutilon theophrasti); assay: Test B pre-/postemergence plant response
In short: as §2

[11] = 31 g ai/ha, 0 to 100 scale (0 no effect, 100 complete control)
[12] = 62 g ai/ha, scale 0 to 100 (0 no effect, 100 complete control)
[13] = 125 g ai/ha, scale 0 (no effect) to 100 (complete control), 13 to 15 days
[14] = 250 g ai/ha, scale 0 to 100 (0 no effect, 100 complete control), 13 to 15 days
[15] = Postemergence, 31 g ai/ha, 0 to 100 scale (0 no effect, 100 complete control)
[16] = Postemergence, 62 g ai/ha, scale 0 to 100 (0 no effect, 100 complete control)
[17] = Postemergence, 125 g ai/ha, scale 0 (no effect) to 100 (complete control), 13 to 15 days
[18] = Postemergence, 250 g ai/ha, scale 0 to 100 (0 no effect, 100 complete control), 13 to 15 days
[19] = Preemergence, 31 g ai/ha, scale 0 to 100 (0 no effect, 100 complete control)
[20] = Preemergence, 62 g ai/ha, scale 0 to 100 (0 no effect, 100 complete control)
[21] = Preemergence, 125 g ai/ha, scale 0 to 100, 0 no effect, 100 complete control
[22] = Preemergence, 250 g ai/ha, 0 to 100 scale

**Q.** With `CCCCn1c(-c2cc(F)cc(F)c2)ncc(C(=O)C2=C(O)C3CCC(C3)C2=O)c1=O` (stereo not shown) [Compound 245] as the compound, how does the “Plant response rating, Windgrass” value [1, 11] read?
**A.** 65

**Q.** What about the “Plant response rating, Windgrass” value [1, 12] of the same compound?
**A.** 70

**Q.** What about the “Plant response rating, Windgrass” value [1, 13] of the same compound?
**A.** 95

**Q.** What about the “Plant response rating, Windgrass” value [1, 14] of the same compound?
**A.** 98

**Q.** What about the “Plant response rating, Canarygrass” value [2, 11] of the same compound?
**A.** 80

**Q.** And the “Plant response rating, Canarygrass” value [2, 12]?
**A.** 95

**Q.** And the “Plant response rating, Canarygrass” value [2, 13]?
**A.** 100

**Q.** And the “Plant response rating, Canarygrass” value [2, 14]?
**A.** 100

**Q.** And the “Plant response rating, Chickweed” value [3, 11]?
**A.** 80

**Q.** What about the “Plant response rating, Chickweed” value [3, 12] of the same compound?
**A.** 85

**Q.** And the “Plant response rating, Chickweed” value [3, 13]?
**A.** 100

**Q.** What about the “Plant response rating, Chickweed” value [3, 14] of the same compound?
**A.** 100

**Q.** And the “Plant response rating, Kochia” value (kochia (Kochia scoparia); [15])?
**A.** 85

**Q.** What about the “Plant response rating, Kochia” value (kochia (Kochia scoparia); [16]) of the same compound?
**A.** 100

**Q.** And the “Plant response rating, Kochia” value (kochia (Kochia scoparia); [17])?
**A.** 100

**Q.** What about the “Plant response rating, Kochia” value (kochia (Kochia scoparia); [18]) of the same compound?
**A.** 100

**Q.** And the “Plant response rating, Kochia” value (kochia (Kochia scoparia); [19])?
**A.** 0

**Q.** What about the “Plant response rating, Kochia” value (kochia (Kochia scoparia); [20]) of the same compound?
**A.** 45

**Q.** What about the “Plant response rating, Kochia” value (kochia (Kochia scoparia); [21]) of the same compound?
**A.** 98

**Q.** What about the “Kochia plant response rating” value (kochia (Kochia scoparia); [22]) of the same compound?
**A.** 100

**Q.** And the “Plant response rating, Soybean” value (soybean (Glycine max); [15])?
**A.** 95

**Q.** What about the “Plant response rating, Soybean” value (soybean (Glycine max); [16]) of the same compound?
**A.** 98

**Q.** And the “Plant response rating, Soybean” value (soybean (Glycine max); [17])?
**A.** 100

**Q.** What about the “Plant response rating, Soybean” value (soybean (Glycine max); [18]) of the same compound?
**A.** 100

**Q.** What about the “Plant response rating, Soybean” value (soybean (Glycine max); [19]) of the same compound?
**A.** 0

**Q.** What about the “Plant response rating, Soybean” value (soybean (Glycine max); [20]) of the same compound?
**A.** 10

**Q.** What about the “Plant response rating, Soybean” value (soybean (Glycine max); [21]) of the same compound?
**A.** 55

**Q.** What about the “Soybean plant response rating” value (soybean (Glycine max); [22]) of the same compound?
**A.** 75

**Q.** And the “Plant response rating, Pigweed” value [4, 15]?
**A.** 80

**Q.** And the “Plant response rating, Pigweed” value [4, 16]?
**A.** 98

**Q.** And the “Plant response rating, Pigweed” value [4, 17]?
**A.** 100

**Q.** And the “Plant response rating, Pigweed” value [4, 18]?
**A.** 100

**Q.** And the “Plant response rating, Pigweed” value [4, 19]?
**A.** 80

**Q.** And the “Plant response rating, Pigweed” value [4, 20]?
**A.** 95

**Q.** What about the “Plant response rating, Pigweed” value [4, 21] of the same compound?
**A.** 100

**Q.** What about the “Pigweed plant response rating” value [4, 22] of the same compound?
**A.** 100

**Q.** What about the “Plant response rating, Wheat” value [5, 15] of the same compound?
**A.** 75

**Q.** What about the “Plant response rating, Wheat” value [5, 16] of the same compound?
**A.** 95

**Q.** What about the “Plant response rating, Wheat” value [5, 17] of the same compound?
**A.** 95

**Q.** And the “Plant response rating, Wheat” value [5, 18]?
**A.** 98

**Q.** And the “Plant response rating, Wheat” value [5, 19]?
**A.** 0

**Q.** What about the “Plant response rating, Wheat” value [5, 20] of the same compound?
**A.** 0

**Q.** And the “Plant response rating, Wheat” value [5, 21]?
**A.** 5

**Q.** What about the “Wheat plant response rating” value [5, 22] of the same compound?
**A.** 15

**Q.** What about the “Plant response rating, Ragweed” value [6, 15] of the same compound?
**A.** 95

**Q.** And the “Plant response rating, Ragweed” value [6, 16]?
**A.** 98

**Q.** What about the “Plant response rating, Ragweed” value [6, 17] of the same compound?
**A.** 100

**Q.** And the “Plant response rating, Ragweed” value [6, 18]?
**A.** 100

**Q.** What about the “Plant response rating, Ragweed” value [6, 19] of the same compound?
**A.** 75

**Q.** What about the “Plant response rating, Ragweed” value [6, 20] of the same compound?
**A.** 85

**Q.** What about the “Plant response rating, Ragweed” value [6, 21] of the same compound?
**A.** 100

**Q.** What about the “Ragweed plant response rating” value [6, 22] of the same compound?
**A.** 100

**Q.** And the “Plant response rating, Johnsongrass” value [7, 15]?
**A.** 100

**Q.** What about the “Plant response rating, Johnsongrass” value [7, 16] of the same compound?
**A.** 100

**Q.** What about the “Plant response rating, Johnsongrass” value [7, 17] of the same compound?
**A.** 100

**Q.** And the “Plant response rating, Johnsongrass” value [7, 18]?
**A.** 100

**Q.** And the “Plant response rating, Johnsongrass” value [7, 19]?
**A.** 65

**Q.** And the “Plant response rating, Johnsongrass” value [7, 20]?
**A.** 75

**Q.** What about the “Plant response rating, Johnsongrass” value [7, 21] of the same compound?
**A.** 80

**Q.** And the “Johnsongrass plant response rating” value [7, 22]?
**A.** 100

**Q.** And the “Plant response rating, Goosegrass” value [8, 15]?
**A.** 98

**Q.** What about the “Plant response rating, Goosegrass” value [8, 16] of the same compound?
**A.** 98

**Q.** And the “Plant response rating, Goosegrass” value [8, 17]?
**A.** 100

**Q.** And the “Plant response rating, Goosegrass” value [8, 18]?
**A.** 100

**Q.** And the “Plant response rating, Goosegrass” value [8, 19]?
**A.** 95

**Q.** And the “Plant response rating, Goosegrass” value [8, 20]?
**A.** 100

**Q.** What about the “Plant response rating, Goosegrass” value [8, 21] of the same compound?
**A.** 100

**Q.** And the “Goosegrass plant response rating” value [8, 22]?
**A.** 100

**Q.** And the “Plant response rating, Oat, Wild” value (wild oat (Avena fatua); [15])?
**A.** 70

**Q.** What about the “Plant response rating, Oat, Wild” value (wild oat (Avena fatua); [16]) of the same compound?
**A.** 85

**Q.** And the “Plant response rating, Oat, Wild” value (wild oat (Avena fatua); [17])?
**A.** 85

**Q.** What about the “Plant response rating, Oat, Wild” value (wild oat (Avena fatua); [18]) of the same compound?
**A.** 100

**Q.** What about the “Plant response rating, Oat, Wild” value (wild oat (Avena fatua); [19]) of the same compound?
**A.** 0

**Q.** What about the “Plant response rating, Oat, Wild” value (wild oat (Avena fatua); [20]) of the same compound?
**A.** 0

**Q.** And the “Plant response rating, Oat, Wild” value (wild oat (Avena fatua); [21])?
**A.** 30

**Q.** What about the “Oat, Wild plant response rating” value (wild oat (Avena fatua); [22]) of the same compound?
**A.** 30

**Q.** What about the “Plant response rating, Cocklebur” value ([9]; 31 g ai/ha, scale 0 to 100 (0 no effect, 100 complete control)) of the same compound?
**A.** 0

**Q.** What about the “Plant response rating, Cocklebur” value [9, 12] of the same compound?
**A.** 0

**Q.** What about the “Plant response rating, Cocklebur” value ([9]; 125 g ai/ha, scale 0 to 100, 0 no effect, 100 complete control) of the same compound?
**A.** 98

**Q.** What about the “Cocklebur plant response rating” value ([9]; 250 g ai/ha, 0 to 100 scale) of the same compound?
**A.** 100

**Q.** What about the “Plant response rating, Velvetleaf” value [10, 15] of the same compound?
**A.** 100

**Q.** And the “Plant response rating, Velvetleaf” value [10, 16]?
**A.** 100

**Q.** What about the “Plant response rating, Velvetleaf” value [10, 17] of the same compound?
**A.** 100

**Q.** What about the “Plant response rating, Velvetleaf” value [10, 18] of the same compound?
**A.** 100

**Q.** And the “Plant response rating, Velvetleaf” value [10, 19]?
**A.** 95

**Q.** What about the “Plant response rating, Velvetleaf” value [10, 20] of the same compound?
**A.** 100

**Q.** And the “Plant response rating, Velvetleaf” value [10, 21]?
**A.** 100

**Q.** And the “Velvetleaf plant response rating” value [10, 22]?
**A.** 100
